Laboratory results from ChEMBL document CHEMBL1130041, “Halogenated 4-(phenoxymethyl)piperidines as potential radiolabeled probes for sigma-1 receptors: in vivo evaluation of [123I]-1-(iodopropen-2-yl)-4-[(4-cyanophenoxy)methyl]pip eri dine” (J Med Chem, 1997).

Experiments:
[1] = In Vitro binding affinity for 5-hydroxytryptamine 2 receptor
[2] = molecular target: T1, Sigma non-opioid intracellular receptor 1 (Homo sapiens, UniProt Q99720); assay: Receptor binding affinity against Sigma receptor
T1 sequence (Q99720 whole entry): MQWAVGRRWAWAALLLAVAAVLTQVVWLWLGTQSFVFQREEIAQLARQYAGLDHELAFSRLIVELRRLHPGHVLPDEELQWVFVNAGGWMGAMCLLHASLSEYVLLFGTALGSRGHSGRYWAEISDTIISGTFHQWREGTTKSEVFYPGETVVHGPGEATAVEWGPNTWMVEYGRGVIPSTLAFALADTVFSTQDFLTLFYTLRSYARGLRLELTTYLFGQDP

Sigma 2 receptor [3] = assay: In vitro for binding affinity at sigma-2 receptor by measuring its ability to displace [3H]DTG from guinea pig membranes; parameters: species or system Cavia porcellus
[4] = Partition coefficient (logP); type: physicochemical; conditions: octanol/water
D(2) dopamine receptor = D(2) dopamine receptor (Homo sapiens, UniProt P14416); assay: In vitro binding affinity for Dopamine receptor D2
Sequence of D(2) dopamine receptor (P14416 whole entry): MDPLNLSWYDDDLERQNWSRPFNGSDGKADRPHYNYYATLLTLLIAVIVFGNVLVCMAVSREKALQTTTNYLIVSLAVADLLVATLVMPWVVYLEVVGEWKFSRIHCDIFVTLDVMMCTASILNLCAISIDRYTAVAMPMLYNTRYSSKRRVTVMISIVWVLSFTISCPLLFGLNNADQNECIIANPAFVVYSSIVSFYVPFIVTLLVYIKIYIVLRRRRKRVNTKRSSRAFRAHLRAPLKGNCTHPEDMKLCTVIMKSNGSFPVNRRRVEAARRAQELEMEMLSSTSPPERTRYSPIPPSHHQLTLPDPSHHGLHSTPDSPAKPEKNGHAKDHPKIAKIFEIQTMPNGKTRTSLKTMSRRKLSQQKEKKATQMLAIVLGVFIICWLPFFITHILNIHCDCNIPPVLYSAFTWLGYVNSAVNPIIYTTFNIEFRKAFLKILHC

[5] = (§1) Ki ratio measured as Ki of sigma-2 receptor to that of sigma-1 receptor.
Rattus norvegicus [6] = species on record: Rattus norvegicus; assay: Blockade of uptake of the radiotracer in posterior cortex; type: functional
Sigma 2 receptor [7] = assay: Receptor binding affinity against Sigma-2 receptor from guinea pig membranes; parameters: species or system Cavia porcellus
[8] = molecular target: T1, Sigma non-opioid intracellular receptor 1; assay: as §1; conditions: Cavia porcellus
[9] = molecular target: T1, Sigma non-opioid intracellular receptor 1; assay: Ki ratio measured as Ki of sigma-2 receptor to that of sigma-1 receptor; conditions: Cavia porcellus
Rattus norvegicus [10] = species on record: Rattus norvegicus; assay: Blockade of uptake of the radiotracer in posterior cortex of rat; type: functional

Row | Structure (SMILES) | Ki [1] [nM] | Ki (Sigma 2 receptor [3]) [nM] | logP [4] | Ki (D(2) dopamine receptor) [nM] | Ratio [5] | also measured
1 | N#Cc1ccc(OCC2CCN(CC3CC3)CC2)cc1 | > 200 | – | – | – | – | Ki [2]: 10 nM
2 | FCCCN1CCC(COc2ccc(Br)cc2)CC1 | > 10000 | 13.1 | 5.88 | > 10000 | 34.5 | –
3 | OCCN1CCC(COc2ccc(I)cc2)CC1 | > 10000 | 139 | 3.8 | > 10000 | 60.4 | –
4 | CC(C)=CCN1CC[C@]2(C)c3cc(O)ccc3C[C@H]1[C@H]2C (single isomer, unassigned) [(+)-PENTAZOCINE] | – | – | – | – | – | Blockade (Rattus norvegicus [6]): 84%
5 | N#Cc1cccc(CN2CCC(COc3ccc(I)cc3)CC2)c1 | > 1000 | 69.5 | 4.19 | – | 24 | –
6 | O=C(CC1CCN(CC2CC2)CC1)c1ccc(F)cc1 | 15 | – | – | – | – | –
7 | FCCCN1CCC(COc2c(F)c(F)c(F)c(F)c2F)CC1 | > 10000 | 5.3 | 4.11 | – | 2.05 | –
8 | N#Cc1ccccc1CN1CCC(COc2ccc(I)cc2)CC1 | > 1000 | 142 | 4.32 | – | 13.5 | –
9 | Brc1ccc(OCC2CCN(CC3CC3)CC2)cc1 | > 10000 | 13.6 | 6.22 | > 10000 | 22.7 | –
10 | O=[N+]([O-])c1ccc(OCC2CCN(CC3CC3)CC2)cc1 | > 200 | – | – | – | – | Ki [2]: 13 nM
11 | Ic1ccc(OCC2CCN(CC3CC3)CC2)cc1 | > 10000 | 11.7 | 6.67 | > 10000 | 23.4 | –
12 | N#Cc1ccc(OCC2CCN(Cc3ccccc3Br)CC2)cc1 | > 1000 | 31.1 | 4.09 | – | 15.4 | –
13 | N#Cc1ccc(OCC2CCN(CCCF)CC2)cc1 | > 10000 | 144 | 2.93 | > 10000 | – | –
14 | O=[N+]([O-])c1ccc(OCC2CCN(Cc3ccc(F)cc3)CC2)cc1 | > 10000 | – | 3.62 | > 10000 | – | Ki (Sigma 2 receptor [7]): 3.9 nM; Ratio [8]: 3.25
15 | N#Cc1ccc(OCC2CCN(Cc3ccc(F)cc3)CC2)cc1 | > 10000 | 5.2 | 3.22 | > 10000 | – | Ratio [9]: 6.84
16 | O=C(CCCN1CCC(O)(c2ccc(Cl)cc2)CC1)c1ccc(F)cc1 [HALOPERIDOL] | – | – | – | – | – | Blockade (Rattus norvegicus [10]): 91%
17 | Fc1cccc(CN2CCC(COc3c(F)c(F)c(F)c(F)c3F)CC2)c1 | > 10000 | 25 | 4.72 | – | 7.48 | –
18 | FCCN1CCC(COc2ccc(I)cc2)CC1 | > 10000 | 102 | 4.02 | > 10000 | 121 | –
19 | Fc1ccc(CN2CCC(COc3c(F)c(F)c(F)c(F)c3F)CC2)cc1 | > 10000 | 4.3 | – | – | 1.17 | –
20 | Brc1cccc(OCC2CCN(CC3CC3)CC2)c1 | > 10000 | 9.9 | 6.36 | > 10000 | 11.3 | –
21 | N#Cc1ccc(OCC2CCN(CCF)CC2)cc1 | > 10000 | 361 | 2.42 | > 10000 | 14.9 | –
22 | Fc1c(F)c(F)c(CN2CCC(COc3c(F)c(F)c(F)c(F)c3F)CC2)c(F)c1F | > 10000 | > 1000 | – | – | – | –
23 | N#Cc1ccc(OCC2CCN(Cc3ccccc3I)CC2)cc1 | > 1000 | 93.6 | 4.3 | – | 10.1 | –
